Test results taken from PubChem BioAssay AID1845202 (Molecular Pharmacology Branch, DTP, NCI, 2023).

Test system: DMS 114 tumor spheroids, viability % test/control
Assay: Anticancer human tumor DMS 114 cell line growth inhibition;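 further: spheroids exposed to compounds for 7 days before read-out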;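 on viability, T/C: luminescence used as a proxy for viable cells; 100% = DMSO vehicle control viability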
Conditions: spheroids with HUVEC and MSC; for IC50: curve of first compound; for viability, T/C: stronger effect = lower value
How it was run: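 Single agents and combinations were tested on spheroids built from tumor cells plus HUVEC and hMSC, at half-log dilutions starting at or near clinical Cmax, else 10 microM; final DMSO 0.25% (v/v).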

[1] = second compound 0.003 µM, first compound 0.0316 µM
[2] = second compound 0.003 µM, first compound 0.1 µM
[3] = second compound 0.003 µM, first compound 0.316 µM
[4] = second compound 0.003 µM, first compound 1 µM
[5] = second compound 0.003 µM, first compound 3.16 µM
[6] = second compound 0.003 µM, first compound 10 µM
[7] = second compound 0.00949 µM, first compound 0.0316 µM
[8] = second compound 0.00949 µM, first compound 0.1 µM
[9] = second compound 0.00949 µM, first compound 0.316 µM
[10] = second compound 0.00949 µM, first compound 1 µM
[11] = second compound 0.00949 µM, first compound 3.16 µM
[12] = second compound 0.00949 µM, first compound 10 µM
[13] = second compound 0.03 µM, first compound 0.0316 µM
[14] = second compound 0.03 µM, first compound 0.1 µM
[15] = second compound 0.03 µM, first compound 0.316 µM
[16] = second compound 0.03 µM, first compound 1 µM
[17] = second compound 0.03 µM, first compound 3.16 µM
[18] = second compound 0.03 µM, first compound 10 µM
[19] = second compound 0.0949 µM, first compound 0.0316 µM
[20] = second compound 0.0949 µM, first compound 0.1 µM
[21] = second compound 0.0949 µM, first compound 0.316 µM
[22] = second compound 0.0949 µM, first compound 1 µM
[23] = second compound 0.0949 µM, first compound 3.16 µM
[24] = second compound 0.0949 µM, first compound 10 µM
[25] = second compound 0.3 µM, first compound 0.0316 µM
[26] = second compound 0.3 µM, first compound 0.1 µM
[27] = second compound 0.3 µM, first compound 0.316 µM
[28] = second compound 0.3 µM, first compound 1 µM
[29] = second compound 0.3 µM, first compound 3.16 µM
[30] = second compound 0.3 µM, first compound 10 µM

| SMILES | IC50 (second compound 0.003 µM) | IC50 (second compound 0.00949 µM) | IC50 (second compound 0.03 µM) | IC50 (second compound 0.0949 µM) | IC50 (second compound 0.3 µM) | viability, T/C [1] | viability, T/C [2] | viability, T/C [3] | viability, T/C [4] | viability, T/C [5] | viability, T/C [6] | viability, T/C [7] | viability, T/C [8] | viability, T/C [9] | viability, T/C [10] | viability, T/C [11] | viability, T/C [12] | viability, T/C [13] | viability, T/C [14] | viability, T/C [15] | further results |
| --- | --- | --- | --- | --- | --- | --- | --- | --- | --- | --- | --- | --- | --- | --- | --- | --- | --- | --- | --- | --- | --- |
| CC(C)n1c(=O)n(C)c2cnc3cc(F)c(-c4ccc(OCCCN5CCCCC5)nc4)cc3c21 + CC[C@@]1(O)C(=O)OCc2c1cc1n(c2=O)Cc2cc3c(CN(C)C)c(O)ccc3nc2-1 | 1950 nM | < 31.6 nM | < 31.6 nM | < 31.6 nM | < 31.6 nM | 75.1% | 72.8% | 63.4% | 61.1% | 43.5% | 16.7% | 37.9% | 37.9% | 33.3% | 31.3% | 25% | 10.4% | 24.7% | 24.6% | 23.9% | viability, T/C [16]: 20.2%; viability, T/C [17]: 18.2%; viability, T/C [18]: 9.25%; viability, T/C [19]: 13.6%; viability, T/C [20]: 15.6%; viability, T/C [21]: 11.3%; viability, T/C [22]: 14.2%; viability, T/C [23]: 11.2%; viability, T/C [24]: 7.13%; viability, T/C [25]: 9.95%; viability, T/C [26]: 9.05%; viability, T/C [27]: 9.41%; viability, T/C [28]: 9.97%; viability, T/C [29]: 8.36%; viability, T/C [30]: 6.56% |
| CC1COCCN1c1cc(-c2ccnn2C)c2ccnc(-c3ccn[nH]3)c2n1 (stereo not given) + CC[C@@]1(O)C(=O)OCc2c1cc1n(c2=O)Cc2cc3c(CN(C)C)c(O)ccc3nc2-1 | < 31.6 nM | < 31.6 nM | < 31.6 nM | < 31.6 nM | < 31.6 nM | 24.7% | 20.3% | 15.8% | 11.9% | 8.38% | 8.31% | 16.8% | 16.3% | 15.2% | 10.5% | 7.71% | 8.35% | 13.2% | 13% | 11.1% | viability, T/C [16]: 8.42%; viability, T/C [17]: 7.3%; viability, T/C [18]: 7.49%; viability, T/C [19]: 8.52%; viability, T/C [20]: 8.81%; viability, T/C [21]: 8.07%; viability, T/C [22]: 7.09%; viability, T/C [23]: 6.17%; viability, T/C [24]: 7.21%; viability, T/C [25]: 6.92%; viability, T/C [26]: 7.23%; viability, T/C [27]: 6.75%; viability, T/C [28]: 6.68%; viability, T/C [29]: 6.95%; viability, T/C [30]: 7.43% |
| COc1cc(C)[nH]c(=O)c1CN1CCc2c(Cl)cc(C(OC)C3COC3)c(Cl)c2C1=O (stereo not given) + CC[C@@]1(O)C(=O)OCc2c1cc1n(c2=O)Cc2cc3c(CN(C)C)c(O)ccc3nc2-1 | > 10000 nM | 1920 nM | < 31.6 nM | < 31.6 nM | < 31.6 nM | 103% | 88.5% | 83.4% | 77% | 66% | 61.2% | 88.3% | 74.2% | 64.1% | 57.5% | 49.3% | 32.1% | 39.2% | 34% | 32.1% | viability, T/C [16]: 30.6%; viability, T/C [17]: 24.4%; viability, T/C [18]: 18.5%; viability, T/C [19]: 16.8%; viability, T/C [20]: 16.3%; viability, T/C [21]: 18.4%; viability, T/C [22]: 17.1%; viability, T/C [23]: 15.2%; viability, T/C [24]: 12%; viability, T/C [25]: 10.3%; viability, T/C [26]: 11.2%; viability, T/C [27]: 10.6%; viability, T/C [28]: 11.4%; viability, T/C [29]: 11.1%; viability, T/C [30]: 10.7% |
| COc1ccc([C@@H](O)c2cc(-c3ncnc4cc(N5CCOCC5)ccc34)c(F)cc2Cl)nn1 + CC[C@@]1(O)C(=O)OCc2c1cc1n(c2=O)Cc2cc3c(CN(C)C)c(O)ccc3nc2-1 | 5390 nM | 1760 nM | < 31.6 nM | < 31.6 nM | < 31.6 nM | 116% | 110% | 109% | 106% | 69% | 27.9% | 89.9% | 73.8% | 78.9% | 57.7% | 40.2% | 17.3% | 30.8% | 32.4% | 32.8% | viability, T/C [16]: 25.5%; viability, T/C [17]: 13.7%; viability, T/C [18]: 13.5%; viability, T/C [19]: 16.2%; viability, T/C [20]: 16.6%; viability, T/C [21]: 16.4%; viability, T/C [22]: 14%; viability, T/C [23]: 10.1%; viability, T/C [24]: 7.97%; viability, T/C [25]: 10.7%; viability, T/C [26]: 9.61%; viability, T/C [27]: 9.29%; viability, T/C [28]: 10.1%; viability, T/C [29]: 6.94%; viability, T/C [30]: 5.57% |
| [2H]c1nc(C)nc([2H])c1-c1cc(NC[C@@H](C)c2cccc3c(C(=O)NC)ccnc23)ncn1 + CC[C@@]1(O)C(=O)OCc2c1cc1n(c2=O)Cc2cc3c(CN(C)C)c(O)ccc3nc2-1 | > 10000 nM | > 10000 nM | < 31.6 nM | < 31.6 nM | < 31.6 nM | 114% | 113% | 112% | 121% | 105% | 88.5% | 93% | 96.2% | 92.4% | 79% | 68.3% | 58.9% | 35.3% | 35% | 32.8% | viability, T/C [16]: 27.7%; viability, T/C [17]: 24%; viability, T/C [18]: 18.9%; viability, T/C [19]: 17%; viability, T/C [20]: 16.7%; viability, T/C [21]: 17.1%; viability, T/C [22]: 16.9%; viability, T/C [23]: 13.7%; viability, T/C [24]: 13.7%; viability, T/C [25]: 11%; viability, T/C [26]: 11%; viability, T/C [27]: 11.4%; viability, T/C [28]: 9.27%; viability, T/C [29]: 12.8%; viability, T/C [30]: 12.3% |
